Earlier results as cited in patent US20060057204A1, “Pharmaceutical compositions containing venlafaxine” (priority 2002, published 2006).
Counter-ions that a name gives are not always drawn.

Conditions: plural daily dosing regimen

COc1ccc(C(CN(C)C)C2(O)CCCCC2)cc1 (centres unmarked) [venlafaxine hydrochloride, 1-[(2-dimethylamino)-1-(4-methoxyphenyl)ethyl] cyclohexanol]
nausea, patients under treatment: about forty five percent
vomiting, patients: about seventeen percent
